For two compounds, IC50 results are on record in ChEMBL document CHEMBL5370560, “Isolation of Anti-SARS-CoV-2 Natural Products Extracted from Mentha canadensis and the Semi-synthesis of Antiviral Derivatives” (J Nat Prod, 2023).

For this experiment, the target named is Replicase polyprotein 1ab (Severe acute respiratory syndrome coronavirus 2, UniProt P0DTD1). Description: Inhibition of recombinant SARS-CoV-2 Delta 3CL protease using Dabcyl-KTSAVLQSGFRKME-Edans as substrate preincubated for 30 mins followed by substrate addition and measured for 1 hr by fluorescence based microplate reader analysis.

By IC50 is commonly meant the concentration that inhibits the measured activity by half. `CCc1cccc(NC(=O)[C@@H](Cc2ccc(O)c(O)c2)OC(=O)/C=C/c2ccc(O)c(O)c2)c1`: the IC50 stood at 45.7 µM.
For the compound `CCCCCCCCCCCCNC(=O)[C@@H](Cc1ccc(O)c(O)c1)OC(=O)/C=C/c1ccc(O)c(O)c1`, the IC50 amounted to 40.8 µM.
